We go through 29 molecules from patent US20080125432A1 (Devgen NV, priority 2004, published 2008).

Where two headings read alike, the source gives them in different places.

What is called IC50 is the concentration that gives 50% inhibition.

The target of the data set is T1, hERG potassium channel (Homo sapiens, UniProt Q12809).
T1 construct: host or cells: HEK 293 T-REx
Kind of data set: Whole cell patch clamp, HEK 293 T-REx HERG cells. Format: cell-based. As to conditions: for hERG: percent value, test concentration not given. An excerpt:
For this experiment HEK 293 T-REx HERG cells (#23) were used. This cell line made by IonGate is characterized by the inducible expression of the hERG gene. The T-REx™ System (Invitrogen, Karlsruhe, Germany) is a tetracycline-regulated mammalian expression system that uses regulatory elements from the E. coli Tn10-encoded tetracycline (Tet) resistance operon. In the absence of Tet the expression is repressed. Tetracycline regulation in the T-REx™ System is based on the binding of tetracycline to the Tet repressor and derepression of the promoter controlling expression of the hERG gene. Addition of Tet to the cell culture media results in expression of the hERG potassium channel.
To construct the HEK 293 T-REx HERG cell line, the hERG gene was ligated into the inducible expression vector pcDNA4/TO (→pc4TO-HERG) and transfected into HEK 293 T-REx cells (this cell line stably expresses the Tet repressor and was purchased at Invitrogen). Stable cell clones were isolated after selection with Blasticidin (5 μg/ml) and Zeocin™ (300 μg/ml). The clones were electrophysiological characterized after induction with 1 μg/ml Tet.
Experiments were performed using the patch clamp set-up. Technical equipment needed for manipulation of the cells was placed on a vibration-isolated table and shielded with a Faraday cage to minimize electrical noise. The amplifier and control system were placed in a rack outside the Faraday cage. The system consisted of an EPC9 or EPC10 patch clamp amplifier (HEKA, Lambrecht, Germany), and the perfusion system DADVC8 (ALA Scientific, New York, USA) controlled by the Pulse software package (HEKA, Lambrecht, Germany) installed on a personal computer.
The cells used for this experiment were kept in continuous culture under standard conditions (37° C., air supplemented with 5% CO2). The HEK 293 T-REx HERG cells were kept in minimal essential medium (MEM) supplemented with 100 U/ml Penicillin, 100 μg/ml Streptomycin, 10% fetal calf serum (FCS), 1% non-essential amino acids (NEAA), 2.5 μg/ml amphotericin, 300 μg/ml Zeocin™ and 5 μg/ml Blasticidin. Cells were passed every 3-4 days after detachment using a Trypsin solution. The quality of the cultured cells was guaranteed by vitality and contamination tests. The culture of the cells was performed as described in protocol D described above.
At least 18 hours prior to electrophysiological experiments the cells were detached by application of iced PBS (phosphate buffered saline) or Trypsin and replated on cover slips. 1 μg/ml Tet was added to the cells to induce hERG expression.
Activity of the cardiac hERG channel was investigated using the patch clamp technique in its whole cell mode. This means that the current needed for clamping the whole cell expressing the K^+-channel protein to a specific potential was measured. The pipettes used for patch clamping were made of borosilicate glass. Measurements were performed at room temperature (20-25° C.). In each experiment (i.e. each cell) only one concentration of the compound was investigated no cumulative dosages were performed. Each cell acted as its own control. […]
After the whole cell configuration was established a series of pulses was applied to check for hERG expression and to optimize amplifier settings. However, only the following measurements were used for data analysis: 15 test pulses (FIG. 4a and Table 6a) were applied at 0.1 Hz (series 1) under constant superfusion with bath solution. The protocol was initiated by a leak test at −40 mV (50 ms). […] The maximum hERG tail current amplitude was measured at −40 mV (tail current test, 1.5 sec.). Only cells generating tail current amplitudes between 300 pA and 10 nA were used for the experimental procedure.
After successful characterization of the current another 10 test pulses were applied at 0.1 Hz while the cell was superfused with bath solution (series 2). […]
In general terms: In patch-clamp work, channel activity is measured electrically.

Setting [1] is: estimated by Hill fit with hill=1, ymax=100, tested at 10 μM, n=2, read-out: IC50 (μM) hERG.
[2] abbreviates: patch clamp, read-out: hERG IC50.

T1 sequence (Q12809 whole entry): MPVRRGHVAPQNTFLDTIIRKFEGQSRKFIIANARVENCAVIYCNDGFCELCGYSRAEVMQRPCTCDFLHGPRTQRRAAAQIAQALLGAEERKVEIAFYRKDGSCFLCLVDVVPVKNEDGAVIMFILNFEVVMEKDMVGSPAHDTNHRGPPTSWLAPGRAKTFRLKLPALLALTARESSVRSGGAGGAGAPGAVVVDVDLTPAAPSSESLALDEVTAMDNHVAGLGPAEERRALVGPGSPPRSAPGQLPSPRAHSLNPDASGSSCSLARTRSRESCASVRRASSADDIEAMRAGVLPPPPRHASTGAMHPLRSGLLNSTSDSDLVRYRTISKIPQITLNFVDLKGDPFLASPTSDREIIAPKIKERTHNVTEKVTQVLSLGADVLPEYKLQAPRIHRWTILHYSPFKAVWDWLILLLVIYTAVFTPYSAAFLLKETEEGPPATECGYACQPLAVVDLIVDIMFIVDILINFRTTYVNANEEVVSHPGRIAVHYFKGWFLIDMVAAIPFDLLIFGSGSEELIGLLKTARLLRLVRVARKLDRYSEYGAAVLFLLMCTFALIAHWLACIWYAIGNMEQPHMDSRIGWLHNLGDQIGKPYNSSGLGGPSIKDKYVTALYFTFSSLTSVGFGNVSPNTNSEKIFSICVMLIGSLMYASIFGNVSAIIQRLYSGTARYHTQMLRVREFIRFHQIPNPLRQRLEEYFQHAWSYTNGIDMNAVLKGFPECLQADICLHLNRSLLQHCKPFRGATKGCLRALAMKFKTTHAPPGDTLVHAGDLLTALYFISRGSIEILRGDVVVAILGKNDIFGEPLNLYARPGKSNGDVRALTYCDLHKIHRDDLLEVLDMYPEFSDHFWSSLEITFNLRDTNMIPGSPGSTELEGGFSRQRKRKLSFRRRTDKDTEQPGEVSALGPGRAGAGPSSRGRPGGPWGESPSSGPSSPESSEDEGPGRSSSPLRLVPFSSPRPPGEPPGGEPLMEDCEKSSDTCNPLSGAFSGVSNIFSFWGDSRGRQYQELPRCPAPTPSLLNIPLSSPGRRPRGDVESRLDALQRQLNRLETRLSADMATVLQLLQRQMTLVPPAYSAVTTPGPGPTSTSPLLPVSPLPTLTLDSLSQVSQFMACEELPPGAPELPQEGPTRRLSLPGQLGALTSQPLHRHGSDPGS

With “2-(4-bromo-phenylamino)-4-methyl-thiazole-5-carboxylic acid 1,2,3,4-tetrahydroisoquinolinamide [Compound 66]”, the 50% inhibitory concentration (IC50) is 9.88 µM under setting [1] and 9.88 µM under setting [2].

Take `Cc1nc(Nc2ccc(F)cc2)sc1C(=O)N[C@H](C)c1ccc2ccccc2c1` [Compound 16, 2-(4-fluoro-phenylamino)-4-methyl-thiazole-5-carboxylic acid (R)-1-(naphthalen-2-yl)ethyl amide]: the IC50 under setting [1] is 28 µM. Still for that read-out and setting: the same measure for `Cc1nc(Nc2ccc(Br)cc2)sc1C(=O)N[C@@H](C)c1ccc2ccccc2c1` [Compound 18, 2-(4-bromo-phenylamino)-4-methyl-thiazole-5-carboxylic acid (S)-1-(naphthalen-2-yl)ethyl amide]: 26.5 µM; for `Cc1nc(Nc2ccc(Br)cc2)sc1C(=O)N[C@H](C)c1ccc2ccccc2c1` [Compound 19, 2-(4-bromo-phenylamino)-4-methyl-thiazole-5-carboxylic acid (R)-1-(naphthalen-2-yl)ethyl amide]: 90 µM. As for `Cc1nc(Nc2ccc(Cl)cc2)sc1C(=O)N[C@@H]1CCC[C@H]1OCc1ccccc1` [Compound 30, 2-(4-chloro-phenylamino)-4-methyl-thiazole-5-carboxylic acid (1R,2R)-2-(benzyloxycyclopent-1-yl) amide], the IC50 reads like this: under setting [1], 11 µM; under setting [2], 11 µM. In the case of `COc1ccccc1Nc1nc(C)c(C(=O)N[C@@H]2CCC[C@H]2OCc2ccccc2)s1` [Compound 31, 2-(2-methoxy-phenylamino)-4-methyl-thiazole-5-carboxylic acid (1R,2R)-2-(benzyloxycyclopent-1-yl) amide], the IC50 under setting [1] is 25.3 µM. On to `COc1ccc(OC)c(Nc2nc(C)c(C(=O)N[C@@H]3CCC[C@H]3OCc3ccccc3)s2)c1` [Compound 33, 2-(2,5-dimethoxyphenylamino)-4-methylthiazole-5-carboxylic acid (1R,2R)-2-(benzyloxycyclopent-1-yl) amide], for which, under setting [1], the IC50 was 33.5 µM.

Regarding `COc1cccc([C@@H](C)NC(=O)c2sc(Nc3cc(Cl)ccc3OC)nc2C)c1` [Compound 34], the IC50 under setting [1] was 8.73 µM. With `Cc1nc(Nc2ccc(Cl)cc2)sc1C(=O)N[C@H](C)c1ccc2ccccc2c1` [Compound 52, 2-(4-chloro-phenylamino)-4-methyl-thiazole-5-carboxylic acid (R)-1-(2-naphtalen-2-yl-ethyl)-amide], the 50% inhibitory concentration (IC50) is, setting by setting: under setting [1], 24.2 µM; under setting [2], 24.2 µM. With `Cc1nc(Nc2ccc(Cl)cc2)sc1C(=O)N[C@@H](C)c1ccc2ccccc2c1` [Compound 54, 2-(4-chloro-phenylamino)-4-methyl-thiazole-5-carboxylic acid (S)-1-(2-naphtalen-2-yl-ethyl)-amide], the half-inhibitory concentration (IC50) is, setting by setting: under setting [1], 15.8 µM; under setting [2], 15.8 µM. Regarding `COc1ccccc1Nc1nc(C)c(C(=O)N[C@@H](C)c2ccc3ccccc3c2)s1` [Compound 55, 2-(2-methoxy-phenylamino)-4-methyl-thiazole-5-carboxylic acid (S)-1-(2-naphtalen-2-yl-ethyl)-amide], the IC50 under setting [1] was 10.2 µM. On to `Cc1nc(Nc2ccc(Br)cc2)sc1C(=O)NCc1cccc2ccccc12` [Compound 56, 2-(4-bromo-phenylamino)-4-methyl-thiazole-5-carboxylic acid (naphtalen-1-yl-methyl)-amide], for which the IC50 is, setting by setting: under setting [1], 7.04 µM; under setting [2], 7.04 µM. For `COc1ccc(CNC(=O)c2sc(Nc3ccc(Br)cc3)nc2C)cc1` [Compound 60, 2-(4-bromo-phenylamino)-4-methyl-thiazole-5-carboxylic acid 4-methoxy-benzylamide], the IC50 under setting [1] is 3 µM. With `Cc1nc(Nc2ccc(Br)cc2)sc1C(=O)NCc1ccc(F)c(C(F)(F)F)c1` [Compound 63, 2-(4-bromo-phenylamino)-4-methyl-thiazole-5-carboxylic acid 4-fluoro-3-trifluoromethyl-benzylamide], the IC50 under setting [1] was 5.29 µM.

Consider `Cc1nc(Nc2ccc(Br)cc2)sc1C(=O)NCc1ccc(N(C)C)cc1` [Compound 64, 2-(4-bromo-phenylamino)-4-methyl-thiazole-5-carboxylic acid 4-dimethylamino-benzylamide], for which the IC50 is, setting by setting: under setting [1], more than 100 µM; under setting [2], more than 100 µM. Take `COc1cc(CNC(=O)c2sc(Nc3ccc(Br)cc3)nc2C)cc(OC)c1` [Compound 65, 2-(4-bromo-phenylamino)-4-methyl-thiazole-5-carboxylic acid 3,5-dimethoxy-benzylamide]: the 50% inhibitory concentration (IC50) under setting [1] is 1.63 µM. Same read-out and setting: to `COc1ccccc1Nc1nc(C)c(C(=O)N[C@H]2CCC[C@@H]2OCc2ccccc2)s1` [Compound 68, 2-(2-methoxy-phenylamino)-4-methyl-thiazole-5-carboxylic acid (1S,2S)-2-(benzyloxycyclopent-1-yl) amide] belongs 7.95 µM. In turn, `COc1ccccc1Nc1ccc(C(=O)N[C@H]2CCC[C@@H]2OCc2ccccc2)s1` [Compound 75, 2-(2-methoxy-phenylamino)-thiophene-5-carboxylic acid ((1S,2S)-2-benzyloxycyclopent-1-yl) amide] showed a hERG of 76%. As for `COc1ccccc1Nc1nccc(C(=O)N[C@H]2CCC[C@@H]2OCc2ccccc2)n1` [Compound 76, 2-(2-methoxy-phenylamino)-pyrimidine-4-carboxylic acid ((1S,2S)-2-benzyloxycyclopent-1-yl) amide], the hERG is reported as 34%. The molecule `Cc1nc(Sc2ccccc2)sc1C(=O)N[C@H]1CCC[C@@H]1OCc1ccccc1` [Compound 81, 4-methyl-2-phenylsulfanyl-thiazole-5-carboxylic acid ((1S,2S)-2-benzyloxycyclopent-1-yl) amide] showed a hERG of 88%. Regarding `Cc1nc(Nc2cccc3ccccc23)sc1C(=O)N[C@H]1CCC[C@@H]1OCc1ccccc1` [Compound 93], the hERG is on record as 59%.

`Cc1nc(Nc2cccc3cccnc23)sc1C(=O)N[C@H]1CCC[C@@H]1OCc1ccccc1` [Compound 94, 4-methyl-2-(quinolin-8-ylamino)-thiazole-5-carboxylic acid ((1S,2S)-2-benzyloxycyclopent-1-yl) amide] returned a hERG of 69%. Same read-out and setting: to `Cc1nc(Nc2ccc3c(c2)OCCO3)sc1C(=O)N[C@H]1CCC[C@@H]1OCc1ccccc1` [Compound 95] belongs 76%; to `COc1ccccc1Nc1nc(C)c(C(=O)NCc2ccccc2SC)s1` [Compound 97], 55%; to `COc1ccccc1Nc1nc(C)c(C(=O)NCc2c(C)cccc2Cl)s1` [Compound 98, 2-(2-methoxy-phenylamino)-4-methyl-thiazole-5-carboxylic acid 2-chloro-6-methyl-benzylamide], 38%.

`COc1ccccc1Nc1nc(C)c(C(=O)NCc2ccc3c(c2)CCO3)s1` [Compound 104, 2-(2-methoxy-phenylamino)-4-methyl-thiazole-5-carboxylic acid (2,3-dihydro-benzofuran-5-ylmethyl)-amide] gave a hERG of 43%. In turn, `COc1ccccc1Nc1nc(C)c(C(=O)NCc2ccc(N(C)C)cc2)s1` [Compound 105, 2-(2-methoxy-phenylamino)-4-methyl-thiazole-5-carboxylic acid 4-dimethylamino-benzylamide] yielded a hERG of 67%. As for `COc1ccccc1Nc1nc(C)c(C(=O)NCc2ccc(C(C)(C)C)cc2)s1` [Compound 106, 2-(2-methoxy-phenylamino)-4-methyl-thiazole-5-carboxylic acid 4-tert-butyl-benzylamide], the hERG is reported as 31%. `COc1ccccc1Nc1nc(C)c(C(=O)NCc2ccc(Br)cc2)s1` [Compound 108, 2-(2-methoxy-phenylamino)-4-methyl-thiazole-5-carboxylic acid 4-bromo-benzylamide] registered a hERG of 19%.
